Assay results taken from US20220153746A1, “NITROGEN OXIDE-DONATING PDE-5 AND/OR PDE-6 INHIBITOR COMPOUNDS, AND USES THEREOF” (ILDONG PHARMACEUTICAL CO., LTD., priority 2020, published 2022).
Read-outs that look alike come from different tables or passages of the source.

Experiment: TD Phase (Groups 1 and 3): plasma and ocular tissue concentrations and pharmacokinetics of Compound 18 and its metabolite Compound 4 after once daily ocular instillation of Compound 18 nanosuspension for 7 days
Format: in vivo, New Zealand white rabbits
Conditions: for concentration at 2 h / concentration at 4 h / concentration at 8 h / concentration at 0.5 h / concentration at 1 h / Cmax / Tmax / AUC(0-t) / half-life: male, New Zealand white, rabbit; for concentration at 2 h / concentration at 4 h / concentration at 8 h / concentration at 0.5 h / concentration at 1 h: TD Phase; for concentration at 2 h: Group 3, 2 h; for concentration at 4 h: Group 3, 4 h; for concentration at 8 h: Group 3, 8 h; for concentration at 0.5 h: Group 3, 0.5 h; for concentration at 1 h: Group 1, 1 h; for Cmax / Tmax / AUC(0-t) / half-life: topical or ocular; for AUC(0-t): read-out: AUC0-8
Source text: This example illustrates the procedures and results for the levels of Compound 18 and its metabolite Compound 4 in plasma and ocular tissues of normotensive rabbits following ocular instillation of Compound 18 once daily for 7 consecutive days.
Twenty five (25) male New Zealand white rabbits were divided into 5 groups of varying amounts of animals per group.
The Test article, Compound 18 was formulated as a 2% nanosuspension in DI water containing 0.2% PS80 (polyoxyethylenesorbitan, monooleate (Tween 80)) and 0.4% HPMC (hydroxypropylmethylcellulose) at pH 6.77. Referred to herein as “Compound 18 nanosuspension.”
The study consisted of three groups (Groups 1-3) of 19 male rabbits (NZW) that underwent once daily morning ocular installation (1 eyedrop) for 7 consecutive days (Day 0-6). Groups 4-5 each consisted of 3 male rabbits (NZW) that were not dosed.
Blood samples (1 mL) were collected from the jugular vein at the intervals set out below for each group. The samples were then inverted several times following collection and held on wet ice until centrifuged. Samples were centrifuged within 60 minutes of collection under refrigeration (set at 5° C. for 10 minutes at 2000 g.
Group 1 (Pilot Study, terminal blood collection): blood was collected from 3 animals at 1 hour post day 7 dose of Compound 18 nanosuspension.
Group 3 (TD Phase, terminal blood collection): blood was collected from 3 animals at 0.5 hour, 3 animals at 2 hours, 3 animals at 4 hours, and 3 animals at 8 hours post day 7 dose of Compound 18 nanosuspension.
(§1) Group 1 (Pilot Study): 3 animals were terminated at 1 hour post Day 7 dose of Compound 18 nanosuspension. Following blood collection and termination, ocular tissues (aqueous humor, vitreous humor, cornea, iris/ciliary body, lens, optic nerve, retina, sclera/choroid, and trabecular meshwork) were collected from each animal and the tissue weights were recorded. Note: sclera and choroid were collected together. Iris and ciliary body were collected together.
as §1, with “3 (TD Phase):” for “1 (Pilot Study):”, “0.5 hour, 3 animals at 2 hours, 3 animals at 4 hours, and 3 animals at 8 hours” for “1 hour”
Plasma and tissue samples from treated animals (Groups 1-3) were analyzed for Compound 18 and its metabolite Compound 4 concentrations by LC-MS/MS.
Pharmacokinetic analysis was conducted using WinNonlin Version 6.2.1 (Pharsight, Mountain View, Calif.), operating as a validated software system. Noncompartmental analysis was conducted using the extravascular administration model for ocular instillation dosing.
The peak plasma and ocular tissue concentration, time to achieve peak plasma and ocular tissue concentration, half-life, and area under the plasma and ocular tissue concentration-time curve (Cmax, Tmax, T1/2, and AUC) were calculated from the TD phase combined with the pilot study mean animal plasma and ocular tissue concentrations for each sampling time/dose group for Compound 18 and its metabolite Compound 4.
BA Assay: Quantitation Range 0.05 to 100 ng/mL for Compound 18, 0.15 to 100 ng/mL for Compound 4.
3. Pipet 50 μL of each type of pre-spiked ocular tissue samples (AH/VH) for QC samples, 50 μL of incurred aqueous humor, and vitreous humor sample (if applicable) into a 96 well plate.
Ocular Tissues Homogenate Preparation: Incurred rabbit ocular tissues were weighed in Genogrinder tubes (plastic tubes with small beads) at the time of removal from the animal and stored frozen (<−70° C.) until analysis. The rabbit incurred ocular tissues were thawed on wet ice. […]

[1] = iris/ciliary body, topical, 2 mg/day, Mean, read-out: Final Compound 18 Iris/Ciliary Body Conc.
[2] = lens homogenate, topical, 2 mg/day, individual animals, homogenate dilution factor 5, read-out: Compound 18 Lens Homogenate Conc.
[3] = lens, topical, 2 mg/day, Mean, read-out: Final Compound 18 Lens Conc.
[4] = lens, topical, 2 mg/day, individual animals, BQL set to 0, read-out: Final Compound 18 Lens Conc.
[5] = optic nerve, other: ocular instillation (eye drop), 0.798 mg/kg/day, Mean, read-out: Final Compound 18 Optic Nerve Conc.
[6] = plasma, other: ocular instillation (eye drop), 0.8 mg/kg/day, Mean, BQL set to 0, read-out: Compound 18 Plasma Conc.
[7] = plasma, other: ocular instillation (eye drop), 0.8 mg/kg/day, individual animals, read-out: Compound 18 Plasma Conc.
[8] = plasma, other: ocular instillation, 0.8 mg/kg/day, Mean, BQL set to 0, read-out: Compound 18 Plasma Conc.
[9] = retina, other: ocular instillation (eye drop), 0.798 mg/kg/day, Mean, read-out: Final Compound 18 Retina Conc.
[10] = sclera/choroid, other: ocular instillation (eye drop), 0.798 mg/kg/day, Mean, read-out: Final Compound 18 Sclera/Choroid Conc.
[11] = 0.8 mg/kg/day, aqueous humor, Day 7, from mean concentrations
[12] = 0.8 mg/kg/day, cornea, Day 7, from mean concentrations
[13] = 0.8 mg/kg/day, iris/ciliary body, Day 7, from mean concentrations
[14] = 0.8 mg/kg/day, lens, Day 7, from mean concentrations
[15] = 0.8 mg/kg/day, optic nerve, Day 7, from mean concentrations
[16] = 0.8 mg/kg/day, plasma, Day 7, from mean concentrations
[17] = 0.8 mg/kg/day, retina, Day 7, from mean concentrations
[18] = 0.8 mg/kg/day, sclera/choroid, Day 7, from mean concentrations
[19] = 0.8 mg/kg/day, trabecular meshwork, Day 7, from mean concentrations
[20] = 0.8 mg/kg/day, vitreous humor, Day 7, from mean concentrations
[21] = trabecular meshwork, other: ocular instillation (eye drop), 0.798 mg/kg/day, Mean, read-out: Final Compound 18 Trabecular Meshwork Conc.
[22] = vitreous humor, other: ocular instillation (eye drop), 0.8 mg/kg/day, Mean, BQL set to 0, read-out: Compound 18 Vitreous Humor Conc.
[23] = vitreous humor, other: ocular instillation (eye drop), 0.8 mg/kg/day, individual animals, read-out: Compound 18 Vitreous Humor Conc.

For `CCCc1nn(C)c2c(=O)[nH]c(-c3cc(S(=O)(=O)N4CC(CCCO[N+](=O)[O-])C4)ccc3OCC)nc12` [Compound 18, 3-(1-((4-ethoxy-3-(1-methyl-7-oxo-3-propyl-6,7-dihydro-1H-pyrazolo[4,3-d]pyrimidin-5-yl)phenyl)sulfonyl)azetidin-3-yl)propyl nitrate], the concentration at 2 h [1] was 5.56 ng/g, the concentration at 4 h [1] was 4.87 ng/g and the concentration at 8 h [1] was 0.967 ng/g. It also gave a concentration at 0.5 h [2] of 1.27 ng/mL, a concentration at 4 h [2] of 0.0767 ng/mL and a concentration at 8 h (lens, other: ocular instillation (eye drop), 0.798 mg/kg/day, Mean, read-out: Final Compound 18 Lens Conc.) of 0 ng/g. For the same compound, the concentration at 1 h [3] was 0 ng/g, the concentration at 1 h [4] was 0 ng/g and the concentration at 0.5 h [3] was 2.12 ng/g. It also gave a concentration at 2 h [3] of 0 ng/g, a concentration at 2 h [4] of 0 ng/g and a concentration at 4 h [3] of 0.128 ng/g. It also gave a concentration at 8 h [4] of 0 ng/g, a concentration at 1 h (optic nerve homogenate, other: ocular instillation (eye drop), 0.798 mg/kg/day, individual animals, homogenate dilution factor 20, read-out: Compound 18 Optic Nerve Homogenate Conc.) of 11.8 ng/mL and a concentration at 1 h [5] of 231 ng/g. It also gave a concentration at 1 h (optic nerve, other: ocular instillation (eye drop), 0.798 mg/kg/day, individual animals, read-out: Final Compound 18 Optic Nerve Conc.) of 236 ng/g, a concentration at 0.5 h [5] of 110 ng/g and a concentration at 2 h [5] of 378 ng/g. For the same compound, the concentration at 4 h [5] was 128 ng/g, the concentration at 8 h [5] was 61.6 ng/g and the concentration at 2 h [6] was 0.0397 ng/mL. For the same compound, the concentration at 2 h [7] was 0.119 ng/mL, the concentration at 8 h [6] was 0.0172 ng/mL and the concentration at 8 h [7] was 0.0517 ng/mL. The concentration at 1 h [8] was 0.0407 ng/mL, the concentration at 1 h (plasma, other: ocular instillation, 0.8 mg/kg/day, individual animals, read-out: Compound 18 Plasma Conc.) was 0.0641 ng/mL and the concentration at 0.5 h [8] was 0.261 ng/mL. It also gave a concentration at 0.5 h (retina homogenate, other: ocular instillation (eye drop), 0.798 mg/kg/day, individual animals, homogenate dilution factor 20, read-out: Compound 18 Retina Homogenate Conc.) of 0.798 ng/mL, a concentration at 1 h [9] of 18.1 ng/g and a concentration at 0.5 h [9] of 22 ng/g. For the same compound, the concentration at 0.5 h (retina, other: ocular instillation (eye drop), 0.798 mg/kg/day, individual animals, BQL set to 0, read-out: Final Compound 18 Retina Conc.) was 16 ng/g, the concentration at 2 h [9] was 34.8 ng/g and the concentration at 4 h [9] was 27.3 ng/g. The concentration at 8 h [9] was 7.17 ng/g, the concentration at 1 h (sclera/choroid homogenate, other: ocular instillation (eye drop), 0.798 mg/kg/day, individual animals, homogenate dilution factor 8, read-out: Compound 18 Sclera/Choroid Homogenate Conc.) was 3.89 ng/mL and the concentration at 1 h [10] was 45.3 ng/g. It also gave a concentration at 1 h (sclera/choroid, other: ocular instillation (eye drop), 0.798 mg/kg/day, individual animals, read-out: Final Compound 18 Sclera/Choroid Conc.) of 31.1 ng/g, a concentration at 0.5 h [10] of 107 ng/g and a concentration at 2 h [10] of 246 ng/g. It also gave a concentration at 4 h [10] of 241 ng/g, a concentration at 8 h [10] of 26.8 ng/g and a Cmax [11] of 0.063 ng/mL. For the same compound, the Tmax [11] was 1 h, the AUC(0-t) [11] was 0.0158 ng·h/mL and the Cmax [12] was 181 ng/g. The Tmax [12] was 1 h, the half-life [12] was 79.8 min and the Cmax [13] was 107 ng/g. The Tmax [13] was 1 h, the half-life [13] was 135 min and the Cmax [14] was 2.12 ng/g. It also gave a Tmax [14] of 0.5 h, a half-life [14] of 51.9 min and a Cmax [15] of 378 ng/g. It also gave a Tmax [15] of 2 h, a half-life [15] of 146 min and a Cmax [16] of 0.261 ng/mL. For the same compound, the Tmax [16] was 0.5 h, the AUC(0-t) [16] was 0.255 ng·h/mL and the Cmax [17] was 34.8 ng/g. The Tmax [17] was 2 h, the half-life [17] was 152 min and the Cmax [18] was 246 ng/g. The Tmax [18] was 2 h, the half-life [18] was 106 min and the Cmax [19] was 7.67 ng/g. For the same compound, the Tmax [19] was 1 h, the half-life [19] was 158 min and the Cmax [20] was 0.0257 ng/mL. For the same compound, the Tmax [20] was 0.5 h, the AUC(0-t) [20] was 0.0242 ng·h/mL and the Cmax (Cornea, Day 7, Compound 18 0.8 mg/kg ocular instillation once daily, Groups 1 and 3) was 181 ng/g. It also gave a concentration at 1 h [21] of 7.67 ng/g, a concentration at 0.5 h [21] of 7.01 ng/g and a concentration at 2 h [21] of 11.8 ng/g. It also gave a concentration at 4 h [21] of 5.52 ng/g, a concentration at 8 h (trabecular meshwork, other: ocular instillation, 0.8 mg/kg/day, Mean, read-out: Final Compound 18 Trabecular Meshwork Conc.) of 1.93 ng/g and a concentration at 0.5 h [22] of 0.0257 ng/mL. For the same compound, the concentration at 0.5 h [23] was 0.0771 ng/mL, the concentration at 2 h [22] was 0.0228 ng/mL and the concentration at 2 h [23] was 0.0683 ng/mL. The AUC0-8 (optic nerve, Day 7, from mean concentrations) was 1302 ng·h/g, the AUC0-8 (retina, Day 7, from mean concentrations) was 173 ng·h/g and the AUC0-8 (sclera/choroid, Day 7, from mean concentrations) was 1234 ng·h/g. It also gave an AUC0-8 (trabecular meshwork, Day 7, from mean concentrations) of 32.4 ng·h/g.
